# Assays:
# ACX3 = molecular target: T1, ACX3 (Arabidopsis thaliana, UniProt P0CZ23); test: MALDI-TOF/TOF MS of substrate and product; format: biochemical; conditions: no CAT2; 50 mM KPO4 pH 7.6, 50 µM FAD, 100 µg/ml BSA, 25 °C, 30 min; product Δ2-OPC4-CoA
# T1 construct: pET28a (plasmid as in Yuan et al. 2017), purified from E. coli
# T1 sequence (P0CZ23 35-675): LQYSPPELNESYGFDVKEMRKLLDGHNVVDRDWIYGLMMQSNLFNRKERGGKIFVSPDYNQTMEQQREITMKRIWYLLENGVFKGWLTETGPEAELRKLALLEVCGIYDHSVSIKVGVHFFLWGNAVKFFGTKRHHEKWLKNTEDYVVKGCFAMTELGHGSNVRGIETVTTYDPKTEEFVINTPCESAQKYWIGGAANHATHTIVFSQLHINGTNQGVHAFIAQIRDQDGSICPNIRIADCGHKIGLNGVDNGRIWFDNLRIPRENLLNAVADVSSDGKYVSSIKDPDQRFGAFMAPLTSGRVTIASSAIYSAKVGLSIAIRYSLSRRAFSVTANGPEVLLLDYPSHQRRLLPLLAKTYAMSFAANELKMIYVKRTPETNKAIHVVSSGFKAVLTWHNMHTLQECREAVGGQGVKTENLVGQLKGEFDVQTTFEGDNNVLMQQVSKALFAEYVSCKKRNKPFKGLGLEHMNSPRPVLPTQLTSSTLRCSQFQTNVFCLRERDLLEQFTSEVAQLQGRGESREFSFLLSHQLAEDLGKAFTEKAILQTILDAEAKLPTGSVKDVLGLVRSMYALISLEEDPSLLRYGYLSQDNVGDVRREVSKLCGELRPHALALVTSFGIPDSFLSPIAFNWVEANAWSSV
# ACX2 = molecular target: T2, ACX2 (Arabidopsis thaliana, UniProt O65201); test: MALDI-TOF/TOF MS of substrate and product; format: biochemical; conditions: no CAT2; 50 mM KPO4 pH 7.6, 50 µM FAD, 100 µg/ml BSA, 25 °C, 30 min; product Δ2-OPC4-CoA
# T2 construct: pET28a (plasmid as in Yuan et al. 2017), purified from E. coli
# T2 sequence (O65201 50-692): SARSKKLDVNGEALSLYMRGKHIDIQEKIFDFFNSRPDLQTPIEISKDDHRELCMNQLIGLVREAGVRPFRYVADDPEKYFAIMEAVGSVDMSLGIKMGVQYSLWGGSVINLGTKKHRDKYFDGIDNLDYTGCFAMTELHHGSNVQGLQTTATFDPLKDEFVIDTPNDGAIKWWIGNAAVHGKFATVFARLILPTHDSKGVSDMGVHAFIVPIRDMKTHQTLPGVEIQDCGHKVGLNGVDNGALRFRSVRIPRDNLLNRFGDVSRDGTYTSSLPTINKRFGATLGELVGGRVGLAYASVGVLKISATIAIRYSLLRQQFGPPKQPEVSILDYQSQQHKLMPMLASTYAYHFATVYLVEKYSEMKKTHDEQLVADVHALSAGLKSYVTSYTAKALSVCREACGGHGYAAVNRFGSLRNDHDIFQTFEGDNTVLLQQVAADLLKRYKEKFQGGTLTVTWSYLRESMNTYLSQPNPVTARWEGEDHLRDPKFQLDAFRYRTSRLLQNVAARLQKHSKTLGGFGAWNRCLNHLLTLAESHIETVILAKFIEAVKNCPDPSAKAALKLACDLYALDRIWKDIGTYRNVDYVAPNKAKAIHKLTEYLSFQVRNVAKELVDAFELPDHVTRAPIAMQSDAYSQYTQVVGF
structure (smiles),measurement,setting,value
CC/C=C\C[C@@H]1C(=O)CC[C@@H]1CCCC(=O)SCCNC(=O)CCNC(=O)[C@H](O)C(C)(C)COP(=O)(O)OP(=O)(O)OC[C@H]1O[C@@H](n2cnc3c(N)ncnc32)[C@H](O)[C@@H]1OP(=O)(O)O [OPC4‐CoA],MALDI-TOF/TOF MS of substrate and product,ACX3,The enzymatic activities of ACX2 and ACX3 were assessed with OPC4‐CoA as the substrate
same,MALDI-TOF/TOF MS of substrate and product,ACX2,The enzymatic activities of ACX2 and ACX3 were assessed with OPC4‐CoA as the substrate

# Source: PMC8435237, “Overexpressing the N‐terminus of CATALASE2 enhances plant jasmonic acid biosynthesis and resistance to necrotrophic pathogen Botrytis cinerea B05.10” (Molecular Plant Pathology, 2021)
